Measurements published in ChEMBL document CHEMBL1201862, “PubChem BioAssay data set” (2004).
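Tested at 5 concentrations; 48 h exposure; 96-well plates; endpoints linearly interpolated, else capped at highest concentration. GI50 = concentration required for 50% inhibition of growth.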 Calls of active or inactive are those of the source. Rule as the data show it: active = GI50 up to about 1.1 µM and inactive = higher. Residues, ends and D or L forms follow the SMILES beside them. *: point of attachment. Boc = CC(C)(C)OC(=O)*; OBn = c1ccc(CO*)cc1

Assays:
Assay in all cases: NCI tumour cell line growth inhibition, 48 h
A549 = test system: A549
ACHN = test system: ACHN
COLO 205 = test system: COLO 205
HOP-92 = test system: HOP-92
MDA-MB-231 = test system: MDA-MB-231
MDA-N = test system: MDA-N
NCI-H226 = test system: NCI-H226
NCI-H522 = test system: NCI-H522
NCI/ADR-RES = test system: NCI/ADR-RES
PC-3 = test system: PC-3
RPMI-8226 = test system: RPMI-8226
RXF 393 = test system: RXF 393
SF-268 = test system: SF-268
SF-295 = test system: SF-295
SK-MEL-2 = test system: SK-MEL-2
SK-OV-3 = test system: SK-OV-3
SNB-19 = test system: SNB-19
UO-31 = test system: UO-31
OVCAR-3 = test system: OVCAR-3
SK-MEL-28 = test system: SK-MEL-28

Measured: GI50

CCOC(=O)C1C(c2ccco2)C2(C#N)C(=N)OC1(C)C2(C#N)C#N (centres undefined)
inactive: A549 > 100 µM | ACHN > 100 µM | COLO 205 > 100 µM | HOP-92 > 100 µM | MDA-MB-231 > 100 µM | MDA-N > 100 µM | NCI-H226 > 100 µM | NCI-H522 > 100 µM | NCI/ADR-RES > 100 µM | PC-3 > 100 µM | RPMI-8226 > 100 µM | RXF 393 > 100 µM | SF-268 > 100 µM | SF-295 > 100 µM | SK-MEL-2 > 100 µM | SK-OV-3 > 100 µM | SNB-19 > 100 µM | UO-31 > 100 µM

CCN(CC)CCC(=O)/C=C/c1ccccc1
inactive: A549 19 µM | ACHN 12.6 µM | COLO 205 7.11 µM | HOP-92 10.4 µM | MDA-MB-231 15.5 µM | MDA-N 13.3 µM | NCI-H226 19.4 µM | NCI-H522 4.51 µM | NCI/ADR-RES 17.5 µM | OVCAR-3 3.54 µM | PC-3 12.8 µM | RPMI-8226 1.97 µM | RXF 393 9.25 µM | SF-268 10.3 µM | SF-295 18.8 µM | SK-MEL-28 15.2 µM | SK-MEL-2 23.3 µM | SNB-19 18.1 µM | UO-31 13.1 µM

NNC(=O)CCC(NS(=O)(=O)c1ccc(Cl)cc1)C(=O)NN (centres undefined)
inactive: A549 > 100 µM | ACHN > 100 µM | COLO 205 > 100 µM | HOP-92 > 100 µM | MDA-MB-231 > 100 µM | MDA-N > 100 µM | NCI-H226 > 100 µM | NCI-H522 > 100 µM | NCI/ADR-RES > 100 µM | OVCAR-3 > 100 µM | PC-3 > 100 µM | RXF 393 > 100 µM | SF-268 > 100 µM | SF-295 > 100 µM | SK-MEL-28 > 100 µM | SK-MEL-2 > 100 µM | SK-OV-3 > 100 µM | SNB-19 > 100 µM | UO-31 > 100 µM

CC1=NN(c2cccc(Cl)c2)C2(SCC(=O)N2c2nc3ccccc3s2)/C1=C\c1ccc(N(C)C)cc1 (centres undefined)
inactive: ACHN 26.1 µM | HOP-92 23.7 µM | MDA-MB-231 40.7 µM | MDA-N > 100 µM | NCI-H226 76 µM | NCI-H522 65.8 µM | NCI/ADR-RES > 100 µM | OVCAR-3 48.5 µM | PC-3 > 100 µM | RPMI-8226 44.2 µM | RXF 393 21.8 µM | SF-268 38.7 µM | SF-295 42.2 µM | SK-MEL-28 > 100 µM | SK-MEL-2 23.9 µM | SK-OV-3 17.5 µM | UO-31 > 100 µM

CC(C)(C)OC(=O)NCCNCCNc1ccccc1
inactive: A549 > 100 µM | ACHN > 100 µM | COLO 205 > 100 µM | HOP-92 > 100 µM | MDA-MB-231 > 100 µM | MDA-N 97.5 µM | NCI-H226 > 100 µM | NCI-H522 > 100 µM | NCI/ADR-RES > 100 µM | OVCAR-3 > 100 µM | PC-3 > 100 µM | RPMI-8226 > 100 µM | RXF 393 > 100 µM | SF-295 > 100 µM | SK-MEL-28 > 100 µM | SK-MEL-2 > 100 µM | SK-OV-3 > 100 µM | SNB-19 > 100 µM | UO-31 > 100 µM

Cc1ccc2[nH]c3c(c2c1)CCC/C3=N/N=C(N)N
inactive: A549 1.89 µM | ACHN 1.89 µM | COLO 205 1.62 µM | HOP-92 2.33 µM | MDA-MB-231 1.39 µM | MDA-N 1.49 µM | NCI-H226 2.11 µM | NCI-H522 1.87 µM | NCI/ADR-RES 1.66 µM | OVCAR-3 2.64 µM | PC-3 2.64 µM | RPMI-8226 2.5 µM | RXF 393 2.15 µM | SF-295 1.65 µM | SK-MEL-28 2.24 µM | SK-MEL-2 1.69 µM | SK-OV-3 19.1 µM | SNB-19 1.99 µM | UO-31 1.95 µM

N/N=C1\CCCc2c1no[n+]2[O-]
inactive: A549 > 100 µM | ACHN > 100 µM | COLO 205 > 100 µM | MDA-MB-231 > 100 µM | MDA-N > 100 µM | NCI-H226 > 100 µM | NCI-H522 > 100 µM | NCI/ADR-RES > 100 µM | OVCAR-3 > 100 µM | PC-3 > 100 µM | RPMI-8226 > 100 µM | RXF 393 > 100 µM | SF-268 > 100 µM | SF-295 > 100 µM | SK-MEL-28 > 100 µM | SK-MEL-2 > 100 µM | SK-OV-3 > 100 µM | SNB-19 > 100 µM | UO-31 > 100 µM

CC(NC(=O)CNC(=O)OC(C)(C)C)C(=O)NC(Cc1ccccc1)C(=O)OCc1ccccc1 (stereo not drawn) (Boc-Gly-Ala-Phe-OBn; configuration not given here)
inactive: A549 > 100 µM | ACHN > 100 µM | COLO 205 > 100 µM | HOP-92 > 100 µM | MDA-MB-231 > 100 µM | MDA-N > 100 µM | NCI-H226 75.7 µM | NCI-H522 68.4 µM | NCI/ADR-RES > 100 µM | PC-3 > 100 µM | RXF 393 > 100 µM | SF-268 86.9 µM | SF-295 > 100 µM | SK-MEL-28 36.5 µM | SK-MEL-2 > 100 µM | SK-OV-3 > 100 µM | SNB-19 > 100 µM | UO-31 > 100 µM

CSc1nc2c(c(=O)[nH]1)N=C(c1ccc(Cl)cc1)CC(c1ccccc1)N2 (centres undefined)
inactive: A549 13.6 µM | ACHN 15.6 µM | COLO 205 19.8 µM | HOP-92 18.4 µM | MDA-MB-231 16.6 µM | MDA-N 17.6 µM | NCI-H226 24.8 µM | NCI-H522 14.5 µM | NCI/ADR-RES 14.5 µM | OVCAR-3 15.2 µM | PC-3 19 µM | RPMI-8226 17.4 µM | RXF 393 17.2 µM | SF-295 18.6 µM | SK-MEL-28 17.3 µM | SK-MEL-2 14.1 µM | SNB-19 15.2 µM | UO-31 13.9 µM

O=C(O)CCC(NC(=O)c1ccc(Oc2nc3ccccc3nc2-c2ccccc2)cc1)C(=O)O (centres undefined)
inactive: A549 > 100 µM | ACHN > 100 µM | COLO 205 > 100 µM | HOP-92 > 100 µM | MDA-MB-231 > 100 µM | MDA-N > 100 µM | NCI-H226 > 100 µM | NCI-H522 > 100 µM | NCI/ADR-RES > 100 µM | OVCAR-3 > 100 µM | PC-3 > 100 µM | RXF 393 > 100 µM | SF-268 > 100 µM | SF-295 > 100 µM | SK-MEL-28 > 100 µM | SK-MEL-2 > 100 µM | SK-OV-3 > 100 µM | SNB-19 > 100 µM | UO-31 > 100 µM

CC[C@]12C=CCN3CCC4(c5cc(/N=N/c6ccccc6)c(OC)cc5N(C)[C@H]4[C@@](O)(C(=O)OC)[C@@H]1OC(C)=O)[C@@H]32 (some centres undefined)
inactive: A549 17.5 µM | ACHN 16.1 µM | COLO 205 25.2 µM | HOP-92 15.4 µM | MDA-MB-231 16.2 µM | MDA-N 18.4 µM | NCI-H226 24 µM | NCI-H522 16.1 µM | NCI/ADR-RES 20.4 µM | OVCAR-3 12.8 µM | PC-3 14.7 µM | RPMI-8226 19.2 µM | RXF 393 15.2 µM | SF-268 18.2 µM | SF-295 15.6 µM | SK-MEL-28 20.3 µM | SK-MEL-2 17.1 µM | SNB-19 20.5 µM | UO-31 14.6 µM

O=C(O)CCC1C(=O)C2CCN1CC2 (centres undefined)
inactive: A549 > 100 µM | ACHN > 100 µM | COLO 205 > 100 µM | MDA-MB-231 > 100 µM | MDA-N > 100 µM | NCI-H226 > 100 µM | NCI-H522 > 100 µM | NCI/ADR-RES > 100 µM | OVCAR-3 > 100 µM | PC-3 > 100 µM | RPMI-8226 > 100 µM | RXF 393 > 100 µM | SF-268 > 100 µM | SF-295 > 100 µM | SK-MEL-28 > 100 µM | SK-MEL-2 > 100 µM | SK-OV-3 > 100 µM | SNB-19 > 100 µM | UO-31 > 100 µM

CC(C)N(C(=O)C12C3(C(=O)C(C)(C)C)C4C5(C#N)C3C1(C(=O)C(C)(C)C)C5C42C(=O)C(C)(C)C)C(C)C (centres undefined)
inactive: A549 > 100 µM | ACHN > 100 µM | COLO 205 > 100 µM | HOP-92 66.2 µM | MDA-MB-231 > 100 µM | MDA-N > 100 µM | NCI-H522 > 100 µM | NCI/ADR-RES > 100 µM | OVCAR-3 > 100 µM | PC-3 > 100 µM | RXF 393 > 100 µM | SF-268 > 100 µM | SF-295 > 100 µM | SK-MEL-28 > 100 µM | SK-MEL-2 > 100 µM | SNB-19 > 100 µM | UO-31 > 100 µM

COc1cc2c(cc1C)NC(=O)/C2=C/c1c(Cl)n(-c2ccccc2)c2ccccc12
inactive: A549 7 µM | ACHN 12.7 µM | COLO 205 5.86 µM | HOP-92 23 µM | MDA-MB-231 8.69 µM | MDA-N 15.1 µM | NCI-H522 11.4 µM | NCI/ADR-RES 16.8 µM | OVCAR-3 7.91 µM | PC-3 4.41 µM | RPMI-8226 7.28 µM | RXF 393 11.2 µM | SF-268 20.6 µM | SF-295 11.3 µM | SK-MEL-28 21.8 µM | SK-MEL-2 11.4 µM | SK-OV-3 24.4 µM | SNB-19 45.7 µM | UO-31 49.2 µM
